According to patent US9802901B2, “Antibacterial 2H-indazole derivatives” (priority 2013, dated 2017):
Values after ≈ are worked out from the molar mass of the structure shown.

Tests used:
Test in all cases: Bacterial growth minimal inhibitory concentration (broth microdilution, CLSI M7-A7)
E. coli ATCC25922 = type: cell-based, Escherichia coli; conditions: cation-adjusted Mueller-Hinton Broth, microdilution, quinolone-sensitive strain; for MIC: Escherichia coli, ATCC25922, read-out: MIC for E. coli ATCC25922
Description: (§1) Minimal Inhibitory Concentrations (MICs; mg/L) were determined in cation-adjusted Mueller-Hinton Broth by a microdilution method following the description given in “Methods for Dilution Antimicrobial Susceptibility Tests for Bacteria that Grow Aerobically”, Approved standard, 7th ed., Clinical and Laboratory Standards Institute (CLSI) Document M7-A7, Wayne, Pa., USA (2006).
(§2) All Example compounds, except the compound of Example 62, were tested against several Gram-positive and Gram-negative bacteria. […] K. pneumoniae A-651 and Acinetobacter baumannii T6474 are multiply-resistant strains (in particular quinolone-resistant), while E. coli ATCC25922 and P. aeruginosa ATCC27853 are quinolone-sensitive strains.

[1] = test system: Acinetobacter baumannii T6474; type: cell-based; conditions: cation-adjusted Mueller-Hinton Broth, microdilution, multiply-resistant (quinolone-resistant) strain; for MIC: Acinetobacter baumannii, T6474, read-out: MIC for A. Baumannii T6474
Description: as §1, §2

P. aeruginosa ATCC27853 = type: cell-based, Pseudomonas aeruginosa; conditions: cation-adjusted Mueller-Hinton Broth, microdilution, quinolone-sensitive strain; for MIC: Pseudomonas aeruginosa, ATCC27853, read-out: MIC for P. aeruginosa ATCC27853
Description: as §1, §2

K. pneumoniae A-651 = type: cell-based, Klebsiella pneumoniae; conditions: cation-adjusted Mueller-Hinton Broth, microdilution, multiply-resistant (quinolone-resistant) strain; for MIC: Klebsiella pneumoniae, A651, read-out: MIC for K. Pneumoniae A-651
Description: as §1, §2

| Compound | MIC for E. coli ATCC25922 (E. coli ATCC25922) | MIC for A. Baumannii T6474 [1] [µg/mL] | MIC for P. aeruginosa ATCC27853 (P. aeruginosa ATCC27853) [µg/mL] | MIC for K. Pneumoniae A-651 (K. pneumoniae A-651) [µg/mL] | MIC (E. coli ATCC25922) [µg/mL] | MIC [1] [µg/mL] | MIC (P. aeruginosa ATCC27853) [µg/mL] | MIC (K. pneumoniae A-651) [µg/mL] |
| --- | --- | --- | --- | --- | --- | --- | --- | --- |
| COc1ccc(-c2ccc3nn(CC[C@](C)(C(=O)NO)S(C)(=O)=O)cc3c2)cc1 [Example 2, (R)—N-hydroxy-2-methylsulfonyl-4-[5-(4-methoxy-phenyl)-indazol-2-yl]-2-methyl-butanamide] | – | – | – | – | 0.125 (≈ 0.299 µM) | 1 (≈ 2.4 µM) | 4 (≈ 9.58 µM) | 0.5 (≈ 1.2 µM) |
| COc1ccc(-c2cc3cn(CC[C@](C)(C(=O)NO)S(C)(=O)=O)nc3cc2F)cc1 [Example 3, (R)-4-[6-fluoro-5-(4-methoxy-phenyl)-indazol-2-yl]-N-hydroxy-2-methylsulfonyl-2-methyl-butanamide] | – | – | – | – | 0.063 (≈ 0.145 µM) | 0.5 (≈ 1.15 µM) | 2 (≈ 4.59 µM) | 0.125 (≈ 0.287 µM) |
| COc1ccc(-c2ccc3nn(CC[C@](C)(C(=O)NO)S(C)(=O)=O)cc3c2)c(F)c1 [Example 1, (R)-4-[5-(2-fluoro-4-methoxy-phenyl)-indazol-2-yl]-N-hydroxy-2-methylsulfonyl-2-methyl-butanamide] | – | – | – | – | 0.063 (≈ 0.145 µM) | 1 (≈ 2.3 µM) | 2 (≈ 4.59 µM) | 0.063 (≈ 0.145 µM) |
| C[C@@](CCn1cc2cc(-c3ccc(NC(=O)CO)cc3)ccc2n1)(C(=O)NO)S(C)(=O)=O [Example 49, (R)—N-hydroxy-4-(5-(4-(2-hydroxyacetamido)phenyl)-2H-indazol-2-yl)-2-methyl-2-(methylsulfonyl)butanamide] | – | – | – | – | 4 (≈ 8.69 µM) | > 32 | 4 (≈ 8.69 µM) | 4 (≈ 8.69 µM) |
| CC(C)(N)C(=O)N1CC(C#CC#Cc2ccc3nn(CC[C@](C)(C(=O)NO)S(C)(=O)=O)cc3c2)C1 [Example 85, (R)-4-(5-((1-(2-amino-2-methylpropanoyl)azetidin-3-yl)buta-1,3-diyn-1-yl)-2H-indazol-2-yl)-N-hydroxy-2-methyl-2-(methylsulfonyl)butanamide] | – | – | – | – | 4 (≈ 8.01 µM) | > 32 | 2 (≈ 4 µM) | 8 (≈ 16 µM) |
| C[C@]1(CO)C[C@@H]1C#CC#Cc1ccc2nn(CC[C@](C)(C(=O)NO)S(C)(=O)=O)cc2c1 [Example 69] | ≦0.063 mg/L | 2 | 0.25 | 0.125 | – | – | – | – |
| C[C@@](CCn1cc2c(F)c(C#Cc3ccc(CO)cc3)ccc2n1)(C(=O)NO)S(C)(=O)=O.O=C(O)C(F)(F)F [Example 23, (R)-4-[4-fluoro-5-(4-hydroxymethyl-phenylethynyl)-indazol-2-yl]-N-hydroxy-2-methylsulfonyl-2-methyl-butanamide trifluoro-acetic acid salt] | – | – | – | – | 0.25 | 1 | 4 | 0.25 |
| C[C@@](CCn1cc2cc(-c3ccc(OC(F)(F)F)cc3)ccc2n1)(C(=O)NO)S(C)(=O)=O [Example 8, (R)—N-hydroxy-2-methylsulfonyl-2-methyl-4-[5-(4-trifluoromethoxy-phenyl)-indazol-2-yl]-butanamide] | – | – | – | – | 0.25 (≈ 0.53 µM) | 0.125 (≈ 0.265 µM) | 4 (≈ 8.48 µM) | 0.5 (≈ 1.06 µM) |
| CC(CCn1cc2cc(-c3ccc(OCCN4CCOCC4)cc3F)ccc2n1)(C(=O)NO)S(C)(=O)=O.O=CO (racemic) [RE3, (RS)-4-{5-[2-fluoro-4-(2-morpholin-4-yl-ethoxy)-phenyl]-indazol-2-yl}-N-hydroxy-2-methylsulfonyl-2-methyl-butanamide formic acid salt] | – | – | – | – | 1 | 8 | 8 | 2 |
| CN(C)c1ccc(-c2ccc3nn(CC[C@](C)(C(=O)NO)S(C)(=O)=O)cc3c2)cc1 [Example 11, (R)-4-[5-(4-dimethylamino-phenyl)-indazol-2-yl]-N-hydroxy-2-methylsulfonyl-2-methyl-butanamide] | – | – | – | – | 0.063 (≈ 0.146 µM) | 2 (≈ 4.65 µM) | 8 (≈ 18.6 µM) | 0.063 (≈ 0.146 µM) |

The next lines start with the values.

| MIC for E. coli ATCC25922 (E. coli ATCC25922) | MIC for A. Baumannii T6474 [1] [µg/mL] | MIC for P. aeruginosa ATCC27853 (P. aeruginosa ATCC27853) [µg/mL] | MIC for K. Pneumoniae A-651 (K. pneumoniae A-651) [µg/mL] | MIC (E. coli ATCC25922) [µg/mL] | MIC [1] [µg/mL] | MIC (P. aeruginosa ATCC27853) [µg/mL] | MIC (K. pneumoniae A-651) [µg/mL] | Compound |
| --- | --- | --- | --- | --- | --- | --- | --- | --- |
| 0.063 µg/mL | 1 | 0.5 | 0.125 | – | – | – | – | C[C@H](O)c1ccc(C#Cc2ccc3nn(CC[C@](C)(C(=O)NO)S(C)(=O)=O)cc3c2)cc1 [Example 34] |
| – | – | – | – | 0.125 (≈ 0.272 µM) | 0.25 (≈ 0.544 µM) | 1 (≈ 2.18 µM) | 0.125 (≈ 0.272 µM) | C[C@@](CCn1cc2cc(C#Cc3ccc(CO)cc3F)ccc2n1)(C(=O)NO)S(C)(=O)=O [Example 39, (R)-4-[5-(2-fluoro-4-hydroxymethyl-phenylethynyl)-indazol-2-yl]-N-hydroxy-2-methylsulfonyl-2-methyl-butanamide] |
| – | – | – | – | 2 (≈ 4.77 µM) | > 32 | 2 (≈ 4.77 µM) | 4 (≈ 9.54 µM) | C[C@@](CCn1cc2cc(C#CC#C[C@H](O)CO)ccc2n1)(C(=O)NO)S(C)(=O)=O [Example 55, (R)-4-(5-((S)-5,6-dihydroxyhexa-1,3-diyn-1-yl)-2H-indazol-2-yl)-N-hydroxy-2-methyl-2-(methylsulfonyl)butanamide] |
| – | – | – | – | 0.063 (≈ 0.134 µM) | 0.25 (≈ 0.532 µM) | 0.5 (≈ 1.06 µM) | 0.125 (≈ 0.266 µM) | CC(C)(O)c1ccc(C#Cc2ccc3nn(CC[C@](C)(C(=O)NO)S(C)(=O)=O)cc3c2)cc1 [Example 27, (R)—N-hydroxy-4-(5-((4-(2-hydroxypropan-2-yl)phenyl)ethynyl)-2H-indazol-2-yl)-2-methyl-2-(methylsulfonyl)butanamide] |
| – | – | – | – | 0.125 (≈ 0.26 µM) | 0.125 (≈ 0.26 µM) | 1 (≈ 2.08 µM) | 0.063 (≈ 0.131 µM) | C[C@@](CCn1cc2cc(C#Cc3ccc([C@@H]4C[C@H]4CO)cc3)ccc2n1)(C(=O)NO)S(C)(=O)=O [Example 41, (R)—N-hydroxy-4-(5-((4-((1R,2R)-2-(hydroxymethyl)cyclopropyl)phenyl)ethynyl)-2H-indazol-2-yl)-2-methyl-2-(methylsulfonyl)butanamide] |
| – | – | – | – | 0.25 (≈ 0.516 µM) | 1 (≈ 2.06 µM) | 1 (≈ 2.06 µM) | 0.5 (≈ 1.03 µM) | C[C@@](CCn1cc2cc(C#Cc3ccc(NC(=O)CO)cc3)ccc2n1)(C(=O)NO)S(C)(=O)=O [Example 47, (R)—N-hydroxy-4-(5-((4-(2-hydroxyacetamido)phenyl)ethynyl)-2H-indazol-2-yl)-2-methyl-2-(methylsulfonyl)butanamide] |
| – | – | – | – | 0.063 (≈ 0.148 µM) | 0.5 (≈ 1.17 µM) | 2 (≈ 4.69 µM) | 0.125 (≈ 0.293 µM) | C[C@@](CCn1cc2cc(C#Cc3ccc(N)cc3)ccc2n1)(C(=O)NO)S(C)(=O)=O [Example 19, (R)-4-[5-(4-amino-phenylethynyl)-indazol-2-yl]-N-hydroxy-2-methylsulfonyl-2-methyl-butanamide] |
| – | – | – | – | 0.125 (≈ 0.279 µM) | 4 (≈ 8.94 µM) | 0.25 (≈ 0.559 µM) | 0.25 (≈ 0.559 µM) | C[C@@](CCn1cc2cc(C#CC#C[C@H]3C[C@]3(F)CO)ccc2n1)(C(=O)NO)S(C)(=O)=O [Example 77, (R)-4-(5-(((1R,2R)-2-fluoro-2-(hydroxymethyl)cyclopropyl)buta-1,3-diyn-1-yl)-2H-indazol-2-yl)-N-hydroxy-2-methyl-2-(methylsulfonyl)butanamide] |
| – | – | – | – | 1 (≈ 2.01 µM) | 2 (≈ 4.02 µM) | 2 (≈ 4.02 µM) | 1 (≈ 2.01 µM) | C[C@@](CCn1cc2cc(C#Cc3ccc(C4(CO)COC4)cc3)ccc2n1)(C(=O)NO)S(C)(=O)=O [Example 43, (R)—N-hydroxy-4-(5-((4-(3-(hydroxymethyl)oxetan-3-yl)phenyl)ethynyl)-2H-indazol-2-yl)-2-methyl-2-(methylsulfonyl)butanamide] |
